Assay results published in patent publication US6482984B2 (priority 2000, dated 2002).

How the values were obtained:
Assay type in all cases: in vivo
[1] = test system: powdery mildew of wheat (Erysiphe graminis forma specialis tritici); experiment: Activity against powdery mildew of wheat (protective spray, potted wheat seedlings); details: 1 ppm active ingredient; wheat seedlings c.v. Frühgold; dusted with spores 24 hours after spraying; scored visually after 7 days; untreated plants infected to 90%
Method: (§1) The active ingredients were formulated as a 10% strength emulsion in a mixture of 63% by weight of cyclohexanone and 27% by weight of emulsifier and diluted to the desired concentration with water.
Leaves of potted wheat seedlings c.v. “Frühgold” were sprayed to run off point with an aqueous preparation of active ingredient which had been prepared using a stock solution of 10% of active ingredient, 63% of cyclohexanone and 27% of emulsifier and, 24 hours after the spray coating had dried on, dusted with spores of powdery mildew of wheat (Erysiphe graminis forma specialis tritici). The test plants were subsequently placed in a greenhouse at 20-24° C. and 60-90% relative atmospheric humidity. After 7 days, the extent of the mildew development was scored visually in % infection of the total leaf area.

[2] = test system: Puccinia recondita; experiment: Curative activity against Puccinia recondita on wheat (leaf rust of wheat); details: 16 ppm active ingredient; wheat seedlings c.v. Kanzler; sprayed the day after infection (curative); 7 days in greenhouse; untreated plants infected to 95%
Method: as §1
Leaves of potted wheat seedlings c.v. “Kanzler” were dusted with leaf rust spores (Puccinia recondita). The pots were then placed for 24 hours in a chamber with high atmospheric humidity (90 to 95%) at 20 to 22° C. During this time, the spores germinated, and the germinal tubes penetrated the leaf tissue. The next day, the infected plants were sprayed to run off point with an aqueous preparation of active ingredient which had been prepared using a stock solution of 10% of active ingredient, 63% of cyclohexanone and 27% of emulsifier. After the spray coating had dried on, the test plants were cultivated for 7 days in a greenhouse at 20-22° C. and a relative atmospheric humidity of 65-70%. The extent of rust development on the leaves was then determined.

[3] = test system: Pyricularia oryzae; details: 63 ppm active ingredient; rice seedlings c.v. Tai-Nong 67; inoculated the day after spraying (protective); 6 days; determined visually; untreated plants infected to 85%

CNC(=O)/C(=N/OC)c1ccccc1COc1ccc(OC(C)/C(C)=N/OC)cc1C (stereo not shown) [I-1, 2-Methoxyimino-2-{2-[4-(2-methoxyimino-1-methyl-propoxy)-2-methylphenoxymethyl]phenyl}-N-methyl-acetamide]
extent of the mildew development, % infection of the total leaf area [1]: no infection

CNC(=O)/C(=N/OC)c1ccccc1COc1ccc(/C(C)=N/OC)cc1C [compound B]
extent of the mildew development, % infection of the total leaf area [1]: 25% | extent of rust development on the leaves (infection) [2]: 25% | extent of the development of the infection on the leaves [3]: 40%

CNC(=O)/C(=N/OC)c1ccccc1COc1ccccc1C [compound A]
extent of the mildew development, % infection of the total leaf area [1]: 60% | extent of rust development on the leaves (infection) [2]: 60% | extent of the development of the infection on the leaves [3]: 25%
